Read-outs that look alike come from different tables or passages of the source.
Tests used:
Assay type in all cases: in vivo
Plasmopara viticola = test: Activity against Peronospora of grapevines caused by Plasmopara viticola; conditions: individual active compound, potted vines
Method: The active compounds, separately or jointly, were prepared as a stock solution with 0.25% by weight of active compound in acetone or DMSO. 1% by weight of the emulsifier Uniperol® EL (wetting agent having emulsifying and dispersing action based on ethoxylated alkylphenols) was added to this solution. The active compounds or the mixtures were diluted with water to the stated concentration.
Evaluation was carried out by determining the infected leaf areas in percent. These percentages were converted into efficacies. The efficacy (W) is calculated as follows using Abbot's formula: W=(1−α/β)·100 • α is the level of fungicidal infection of the treated plants in % and • β is the level of fungicidal infection of the untreated (control) plants in %
An efficacy of 0 means that the infection level of the treated plants corresponds to that of the untreated control plants; an efficacy of 100 means that the treated plants were not infected.
The expected efficacies of the mixtures of active compounds were determined using Colby's formula [R. S. Colby, Weeds 15, 20-22 (1967)] and compared with the observed efficacies. Colby's formula: E=x+y−x·y/100 • E expected efficacy, expressed in % of the untreated control, when using the mixture of the active compounds A and B at the concentrations a and b • x efficacy, expressed in % of the untreated control, when using active compound A at the concentration a • y efficacy, expressed in % of the untreated control, when using active compound B at the concentration b
Leaves of potted vines were sprayed to runoff point with an aqueous suspension having the concentration of active compound stated below. The next day, the undersides of the leaves were inoculated with an aqueous sporangial suspension of Plasmopara viticola. The grapevines were then initially placed into a water-vapor-saturated chamber at 24° C. for 48 hours and then placed in a greenhouse at 20-30° C. for 5 days. After this period of time, the plants were again placed in a humid chamber for 16 hours to promote sporangiophore eruption. The extent to which the infection had developed on the undersides of the leaves was then determined visually.

Cochliobolus miyabeanus = test: Activity against brown spot of rice caused by Cochliobolus miyabeanus, protective treatment; conditions: Bipolaris oryzae, 144 h, read-out: Efficacy in % of the untreated control
Pyricularia oryzae = conditions: individual active compound, rice seedlings Tai-Nong 67

CC1CCN(c2c(-c3c(F)cc(F)cc3F)c(Cl)nc3ncnn23)CC1 [I, 5-chloro-7-(4-methylpiperidin-1-yl)-6-(2,4,6-trifluorophenyl)-[1,2,4]triazolo[1,5-a]pyrimidine] was tested, and the “Efficacy in % of the untreated control” value (Plasmopara viticola; 1 ppm in the spray liquor) was 0%, the “Efficacy in % of the untreated control” value (Plasmopara viticola; 4 ppm in the spray liquor) was 38% and the pest or weed control at 4 ppm (Cochliobolus miyabeanus) was 33%. For the same compound, the “Efficacy in % of the untreated control” value (Pyricularia oryzae; 0.25 ppm in the spray liquor) was 0%, the “Efficacy in % of the untreated control” value (Pyricularia oryzae; 1 ppm in the spray liquor) was 11% and the “Efficacy in % of the untreated control” value (Pyricularia oryzae; 4 ppm in the spray liquor) was 33%.
With Clc1ccc(C2(Cn3cncn3)CC(Br)CO2)c(Cl)c1 (stereo not shown) [II (bromuconazole), 1-[4-bromo-2-(2,4-dichlorophenyl)tetrahydrofuran-2-ylmethyl]-1H-[1,2,4]triazole] the pest or weed control at 1 ppm (Cochliobolus miyabeanus) was 13%, the pest or weed control at 4 ppm (Cochliobolus miyabeanus) was 25% and the pest or weed control at 16 ppm (Cochliobolus miyabeanus) was 50%.
Work on CC1COC(Cn2cncn2)(c2ccc(Oc3ccc(Cl)cc3)cc2Cl)O1 (stereo not shown) [III (difenoconazole)] yielded a pest or weed control at 1 ppm (Cochliobolus miyabeanus) of 13%, a pest or weed control at 4 ppm (Cochliobolus miyabeanus) of 38% and a pest or weed control at 16 ppm (Cochliobolus miyabeanus) of 63%.
With CC(C)(C)C(O)/C(=C\c1ccc(Cl)cc1Cl)n1cncn1 (stereo not shown) [IV (diniconazole), 1-(2,4-dichlorophenyl)-4,4-dimethyl-2-[1,2,4]triazol-1-ylpent-1-en-3-ol] the pest or weed control at 1 ppm (Cochliobolus miyabeanus) was 0%, the pest or weed control at 4 ppm (Cochliobolus miyabeanus) was 0% and the pest or weed control at 16 ppm (Cochliobolus miyabeanus) was 25%.
With N#CC(Cc1ccc(Cl)cc1)(c1ccccc1)n1cncn1 (stereo not shown) [V (fenbuconazole), 3-(4-chlorophenyl)-2-phenyl-2-[1,2,4]triazol-1-ylpropionitrile] the “Efficacy in % of the untreated control” value (Pyricularia oryzae; 1 ppm in the spray liquor) was 0%.
In the case of O=c1c2cc(F)ccc2nc(-n2cncn2)n1-c1ccc(Cl)cc1Cl [VI (fluquinconazole), 3-(2,4-dichlorophenyl)-6-fluoro-2-[1,2,4]-triazol-1-yl-3H-quinazolin-4-one], the “Efficacy in % of the untreated control” value (Plasmopara viticola; 1 ppm in the spray liquor) is reported as 0% and the “Efficacy in % of the untreated control” value (Plasmopara viticola; 4 ppm in the spray liquor) is reported as 0%.
For CCCCC(O)(Cn1cncn1)c1ccc(Cl)cc1Cl (stereo not shown) [VIII (hexaconazole), 2-(2,4-dichlorophenyl)-1-[1,2,4]triazol-1-ylhexan-2-ol], the “Efficacy in % of the untreated control” value (Pyricularia oryzae; 1 ppm in the spray liquor) was 11%.
For FC(F)C(F)(F)OCC(Cn1cncn1)c1ccc(Cl)cc1Cl (stereo not shown) [X (tetraconazole), 1-[2-(2,4-dichlorophenyl)-3-(1,1,2,2-tetrafluoroethoxy)propyl]-1H-[1,2,4]triazole], the “Efficacy in % of the untreated control” value (Plasmopara viticola; 1 ppm in the spray liquor) was 0% and the “Efficacy in % of the untreated control” value (Plasmopara viticola; 4 ppm in the spray liquor) was 0%.
With CCCOC/C(=N\c1ccc(Cl)cc1C(F)(F)F)n1cncn1 [XI (triflumizole), (4-chloro-2-trifluormethylphenyl)-(2-propoxy-1-[1,2,4]triazol-1-ylethylidene)amine] the “Efficacy in % of the untreated control” value (Pyricularia oryzae; 1 ppm in the spray liquor) was 11%.
Compound OC(Cn1cncn1)(c1ccc(F)cc1)c1ccccc1F (stereo not shown) [XII (flutriafol), 1-(4-fluorophenyl)-1-(2-fluorophenyl)-2-[1,2,4]triazol-1-ylethanol] has a pest or weed control at 1 ppm (Cochliobolus miyabeanus) of 0%, a pest or weed control at 4 ppm (Cochliobolus miyabeanus) of 25% and a pest or weed control at 16 ppm (Cochliobolus miyabeanus) of 63%.
With CCCC(Cn1cncn1)c1ccc(Cl)cc1Cl (stereo not shown) [XIV (penconazole), 1-[2-(2,4-dichlorophenyl)pentyl]-1H-[1,2,4]triazole] the pest or weed control at 1 ppm (Cochliobolus miyabeanus) was 0%, the pest or weed control at 4 ppm (Cochliobolus miyabeanus) was 25% and the pest or weed control at 16 ppm (Cochliobolus miyabeanus) was 63%.
With CC(C)C1CCC(Cc2ccc(Cl)cc2)C1(O)Cn1cncn1 (stereo not shown) [XVI (ipconazole), 2-(4-chlorobenzyl)-5-isopropyl-1-[1,2,4]triazol-1-ylmethylcyclo pentanol] the “Efficacy in % of the untreated control” value (Pyricularia oryzae; 1 ppm in the spray liquor) was 11%.
With CC1(C)CC/C(=C\c2ccc(Cl)cc2)C1(O)Cn1cncn1 (stereo not shown) [XVII (triticonazole), 5-(4-chlorobenzylidene)-2,2-dimethyl-1-[1,2,4]triazol-1-ylmethyl cyclopentanol] the “Efficacy in % of the untreated control” value (Plasmopara viticola; 1 ppm in the spray liquor) was 0% and the “Efficacy in % of the untreated control” value (Plasmopara viticola; 4 ppm in the spray liquor) was 0%.
For OC(Cc1ccccc1Cl)(Cn1nc[nH]c1=S)C1(Cl)CC1 (stereo not shown) [XVIII (prothioconazole), 2-[2-(1-chlorocyclopropyl)-3-(2-chlorophenyl)-2-hydroxypropyl]-2,4-dihydro[l,2,4]triazole-3-thione], the pest or weed control at 1 ppm (Cochliobolus miyabeanus) was 13%, the pest or weed control at 4 ppm (Cochliobolus miyabeanus) was 50% and the pest or weed control at 16 ppm (Cochliobolus miyabeanus) was 63%.
